{"source": "patent US20110158947A1", "about": "“SULFONYLUREA RECEPTOR AND MEANS FOR TREATING ISCHAEMIA” (priority 2008, published 2011)", "key": {"H9C2 cells": {"test_system": "H9C2 cells", "test": "Cell survival assay (Multitox-Fluor) under DNP metabolic stress", "format": "cell-based, rat", "conditions": "control (GFP-infected) H9C2 cells, DNP 10 mM, n=14", "experimental": "H9C2 cells Rat embryonic heart H9c2 cells (ECACC, Salisbury, UK) were cultured in a tissue flask (at 5% CO2) containing Dulbecco's modified Eagle's medium supplemented with 10% fetal calf serum and 2 mM glutamine. For electrophysiological experiments, the cells were plated on a 35×10-mm culture dish containing 25-mm glass cover-slips. The cells were cultured in incubators (Galaxy, oxygen control model, RS Biotech, Irvine, UK). […] The recombinant SUR2A adenovirus (AV-SUR2A) was generated using the AdEasy XL Adenoviral Vector System (Stratagene). SUR2A gene was cloned into a shuttle vector pShuttle-CMV by PCR using the following primers containing restrict enzyme sites Bgl II/Xho I, sense, 5′-GCAGATCT GGCAGGCTGTTGGTAGCTCA-3′, antisense, 5′-GCCTCGAG CTACTTGTTGGTCATCACCA-3. […] The virus titer is determined using QuickTiter Adenovirus Titer Immunoassay Kit (Cell Biolabs, Inc) according to manufacturer's instructions. […]\nThe survival of H9C2 cells were assayed using Multitox-Fluor Multiplex Cytotoxicity Assay (Promega). […] Following 30 min-long incubation at 37° C., plates were measured using 1420 Multibabel Counter (Victor) plate reader, with excitation at 370 nm and emissions of 480 nm. The percentage of live cells was calculated based on the intensity of fluorescence according to the manufacturer instructions."}, "cardiomyocytes": {"test_system": "cardiomyocytes", "test": "Intracellular Ca2+ (Fluo-3) in cardiomyocytes exposed to isoprenaline", "format": "cell-based, mouse", "conditions": "100 μM, n=6", "from_the_text": "Ventricular cardiomyocytes were dissociated from the mouse using an established enzymatic procedure. Mitochondrial membrane potential was monitored in cells exposed to hypoxia as described. To measure the mitochondrial membrane potential cells were loaded with JC-1 according to the manufacturer's instructions (Invitrogen, Paisley, UK) and continously monitored with LSM-510. Fluorescence was imaged at 488 nm excitation wavelength and emission was captured at 530 and 590 nm for green and red channels respectively; the JC-1 ratio refers always to green/red ratio. The moment of cell death was defined as the point when the cell has become rounded (ratio of diameters<2). In addition to mitochondrial membrane potential, intracellular Ca^2+ levels were also measured using Fluo-3, Ca^2+-sensitive dye [described in 11-13]."}, "SUR2A mRNA": {"test_system": "SUR2A mRNA", "test": "Real time RT-PCR of myocardial SUR2A mRNA in mice on nicotinamide-rich diet", "format": "in vivo", "conditions": "n=6", "from_the_text": "Real time RT-PCR Total RNA was extracted from cardiac ventricular tissue of transgenic and wild type mice using TRIZOL reagent (Invitrogen, Paisley, UK) according to the manufacturer's recommendations. Extracted RNA was further purified with RNeasy Mini Kit (Qiagen, Crawley, UK) according to the manufacturer's instruction. The specific primers for mouse SUR2A, Kir6.2, Kir6.1, SUR1 and SUR2B (designed to amplify SUR2B and natively present SUR2A) were designed as follows: For SUR2A: sense, […], antisense, […]; for Kir6.2: sense; […], antisense, […]; for Kir6.1: sense, 5′-[…]-3, antisense, 5-[…]-3′; for SUR1: sense, 5′-GGAAGGACTCACCACCATC-3′, antisense, 5′-GAGACCATCAAGGCGTAGG-3′; for SUR2B: sense, 5′-GATGCCACTGTCACCGAAG-3′, antisense, 5-[…]-3′. The real time RT-PCR was performed as described in ref. 14.\nNicotinamide was administered orally, i.e. as a dietary supplement. Mice were fed with nicotinamide-rich diet (ad libidum; 500 mg of nicotinamide per 1 kg of food) for 3 weeks. Estimated daily intake was 2.5 mg. For some in vitro experiments, cardiac cells were incubated for 24 hours in a DMEM medium containing 10% fetal calf serum, 2 mM glutamine and 20 mM NAD or NADH.\nAll experiments have been done on male mice. […] After the test, mice were sacrificed, hearts harvested and SUR2A mRNA levels measured. […]"}, "male mice": {"test_system": "male mice", "test": "Treadmill endurance test", "format": "in vivo", "conditions": "one week, n=6", "experimental": "All experiments have been done on male mice. Mice were on RM1 ad libidum diet (SDS, UK) and RM1 diet supplemented with nicotinamide (0.1, 0.5, 2.5, 12.5 g of nicotinamide per kg of diet which would lead to daily intake of 0.04 mg of nicotinamide in control diet and 0.4 mg, 2 mg, 10 mg and 50 mg in nicotinamide-rich diets). All mice were of similar age and weight. Mice were on these diets for a week. To assess physical endurance in these mice, we have used treadmill endurance test. A six lane treadmill (Columbus Instruments, Columbus, Ohio) was used to perform treadmill tests. The exercise-induced stress protocol consisted of a step-wise increase in velocity at constant incline. Before the experiments, animals were acclimatized to the treadmill for 30 minutes; 10 minutes at 0 m/min, 10 minutes at 3 m/min followed by 10 minutes at 6 m/min two days prior to the treadmill endurance test. The treadmill endurance test consisted of a step-wise increase in velocity over time at constant incline. The animal was made to run at 3, 5, 8 (all at m/min) for 3 min intervals followed by 9, 10, 11, 12, 13, 14, 15 (all at m/min) for 5 min intervals and then at a constant velocity of 16 m/min until exhaustion. After the test, mice were sacrificed, hearts harvested and SUR2A mRNA levels measured. More specifically, total RNA was extracted from cardiac ventricular tissue of transgenic and wild type mice using TRIZOL reagent (Invitrogen, Paisley, UK) according to the manufacturer's recommendations. Extracted RNA was further purified with RNeasy Mini Kit (Qiagen, Crawley, UK) according to the manufacturer's instruction. The for mouse SUR2A were designed as follows: sense, […], antisense, […]. The reverse transcription (RT) reaction was carried out with ImProm-II Reverse Transcriptase (Promega, Southampton, UK). […] Efficiency is evaluated by the slope of the regression curve obtained with several dilutions of the cDNA template. […] Threshold cycle values, PCR efficiency (examined by serially diluting the template cDNA and performing PCR under these conditions) and PCR specificity (by constructing the melting curve) were determined by the same software. […] The relative expression ratio(R) of a gene encoding KATP channel subunit is calculated using equation R=(EK)^ΔCPk^(CD-ND)/(ER)^ΔCPR^(CD-ND) where EK is the real time PCR efficiency of SUR2A gene transcript, ER is the real time PCR efficiency of GAPDH gene, ΔCPK is the crossing point deviation of control diet-nicotinamide diet of SUR2A gene transcript while ΔCPR is the crossing point deviation of control diet-nicotinamide diet of GAPDH gene transcript."}}}
{"smiles": "O=[N+]([O-])c1ccc(O)c([N+](=O)[O-])c1", "note": "[DNP]", "values": [{"measurement": "cells that survived DNP", "setting": "H9C2 cells", "result": "43.3±1.8", "unit": "%"}]}
{"smiles": "CC(C)NCC(O)c1ccc(O)c(O)c1", "note": "(stereo not drawn) [isoprenaline]", "values": [{"measurement": "relative fluo-3 fluorescence (calcium levels)", "setting": "cardiomyocytes; cardiomyocytes from transgenic SUR2A mice", "result": "78±16.6"}, {"measurement": "relative fluo-3 fluorescence (calcium levels)", "setting": "cardiomyocytes; cardiomyocytes from wild type mice", "result": "127.2±13.8"}]}
{"smiles": "NC(=O)c1cccnc1", "note": "[nicotinamide]", "values": [{"measurement": "threshold cycle, SUR2A mRNA in the heart", "setting": "SUR2A mRNA; 0.1 g/kg nicotinamide-rich diet, one week, after treadmill test", "result": "21.8±0.8"}, {"measurement": "threshold cycle, SUR2A mRNA in hearts", "setting": "SUR2A mRNA; nicotinamide-rich diet, 500 mg per 1 kg of food, 3 weeks, lower cycle = more mRNA", "result": "23.57±1.47"}, {"measurement": "time on treadmill", "setting": "male mice; 0.1 g/kg nicotinamide in diet", "result": "144.0 ± 14.9", "unit": "min"}, {"measurement": "time on treadmill", "setting": "male mice; 0.5 g/kg nicotinamide in diet", "result": "95.3 ± 18.1", "unit": "min"}, {"measurement": "time on treadmill", "setting": "male mice; 2.5 g/kg nicotinamide in diet", "result": "103.7 ± 20.4", "unit": "min"}, {"measurement": "time on treadmill", "setting": "male mice; 12.5 g/kg nicotinamide in diet", "result": "88.2 ± 12.5", "unit": "min"}]}
